Source: patent publication US20260256794A1, “Oral Dynamine Formulations and Methods Therefor” (Ortho-Nutra, LLC, priority 2023, published 2026)

Experiments:
Assay type in all cases: in vivo, human
subjects [1] = experiment: VAS-Well-Being; design: VAS-Well-Being rating, Mean / VAS-Well-Being changes from baseline, Mean Difference ± SE / VAS-Well-Being area under the curve, Mean Difference ± SE / VAS-Well-Being area under the curve, Mean: scale not given here
Procedure: (§1) The inventors have discovered various compositions and methods of improving various indices of neurological and neuroenergetic functions by administering 100 mg (once daily) dosages of DYNAMINE™ (dosage between 1.0 and 1.4 mg/kg) as described in the following:
(§2) All neuroenergetic tests as listed below were performed and data were collected after 0 and 4 days of assigned supplements (with acute effects also measured at day 4 over 180 minutes):
All VAS Measurement (Energy, Sustained Energy, Mental Stamina, Ability to Focus, Ability to Concentrate, Motivation to Accomplish Difficult Tasks, Drive, Vigor, Level of Positive Outlook, Mood, Feelings of Well-Being, Tolerate Stress); Day 0: Two tests were completed. The average of both scores was computed and this value was used in all statistical analysis. Day 4 (0 minutes after ingesting dose #4): Two tests were completed. The average of both scores was computed and this value was used in all statistical analysis. Day 4 (60, 120, and 180 minutes after ingesting dose #4): One test was completed at each time point.
Neuroenergic parameters are inherently subjective, nevertheless significant in human behavior and well-being. To allow for a standardization among different subjects, the following experiments were performed using a visual analog scale using anchor statements (lowest possible/highest possible) in which subjects were asked to rate their subjective experience with respect to the specific neuroenergic parameters tested.
VAS-Well-Being: In this subjective test, subjects were asked to rate their personal level of energy on a VAS scale using the prompt of “My feeling of well-being right now is . . . ” (with rating lowest possible to highest possible)”. Results were collected as noted above and Table 34 provides exemplary results for Day 0 versus Day 4 ratings, whereas Table 35 provides exemplary acute results measured at Day 4 over a duration of 180 minutes.

subjects [2] = experiment: Stroop-Total Score
Procedure: as §1, §2
(§3) Stroop Color Matching Test (Total Score, Accuracy %, Average Score): Day 0: Two blocks of three tests were completed. Each block of three tests was separated by 10 minutes. The median of each block was taken and then those two scores were averaged. This value was used in all statistical analysis. Day 4: Three tests were completed at four time points: after 0, 60, 120, and 180 minutes of taking dose #4. The median of the three tests at each time point was used in all statistical analysis.
(§4) The Stroop Color and Word Test (SCWT, or Stroop test) is a neuropsychological test extensively used to assess the ability to inhibit cognitive interference that occurs when the processing of a specific stimulus feature impedes the simultaneous processing of a second stimulus attribute, well-known as the Stroop effect (see e.g., Front Psychol. 2017; 8:557). Here, subjects were required to read three different tables as fast as possible. Two of them represent the “congruous condition” in which participants are required to read names of colors (‘color-words’) printed in black ink (W) and name different color patches (C). However, in the third table, the color-word (CW) condition, color-words are printed in an inconsistent color ink (e.g., the word “red” is printed in green ink). In this incongruent condition, participants are required to name the color of the ink instead of reading the word. In other words, the participants are required to perform a less automated task (i.e., naming ink color) while inhibiting the interference arising from a more automated task (i.e., reading the word). This difficulty in inhibiting the more automated process is called the Stroop effect. The Stroop test is predominantly used to measure the ability to inhibit cognitive interference. However, some sources also report its application to measure other cognitive functions such as attention, processing speed, cognitive flexibility, and working memory.
(§5) Stroop-Total Score: The results for this test were based on a total score comparing performance between Day 0 and Day 4, with Day 4 including tests over a duration of 180 minutes. Results were collected as noted above and Table 41 provides exemplary results for Day 0 versus Day 4 ratings, whereas Table 42 provides exemplary acute results measured at Day 4 over a duration of 180 minutes.

subjects [3] = experiment: Stroop-Average Time; conditions: unit assumed
Procedure: as §1, §2, §3, §4
as §5, with “Stroop-Average Time:” for “Stroop-Total Score:”, “an average time” for “a total”, “45” for “41”, “46” for “42”

subjects [4] = experiment: Hemodynamics: diastolic blood pressure; conditions: for Diastolic blood pressure changes from baseline, Mean Difference ± SE / Diastolic blood pressure changes from baseline, effect size d: between groups (placebo)
Procedure: as §1
(§6) Hemodynamics Systolic Blood Pressure, Diastolic Blood Pressure, Heart Rate were taken Pre and Post Stroop Test on Day 0; Pre and Post Stroop Test after 4 Days of Supplementation 0, 60, 120, and 180 minutes after ingestion of 4th dose.
(§7) For hemodynamic parameters, systolic blood pressure, diastolic blood pressure, and heart rate were taken pre- and post-Stroop Test on Day 0, and pre- and post-Stroop Test after 4 Days of Supplementation 0, 60, 120, and 180 minutes after ingestion of 4th dose.

subjects [5] = experiment: Hemodynamics: heart rate
Procedure: as §6, §7

[6] = 100 mg once daily, Day 4, 0-180 min, vs Group A (placebo)
[7] = 100 mg once daily, Day 4, 0 min after dose #4
[8] = 100 mg once daily, Day 4, 60 min-0 min, vs Group A (placebo)
[9] = 100 mg once daily, Day 4, 60 min after dose #4
[10] = 100 mg once daily, Day 4, 120 min-0 min, vs Group A (placebo)
[11] = 100 mg once daily, Day 4, 120 min after dose #4
[12] = 100 mg once daily, Day 4, 180 min-0 min, vs Group A (placebo)
[13] = 100 mg once daily, Day 4, 180 min after dose #4
[14] = 100 mg once daily, Day 4, 60 min-0 min
[15] = 100 mg once daily, Day 4, 120 min-0 min
[16] = 100 mg once daily, Day 4, 180 min-0 min

**Q.** For `COc1nc2c(c(=O)n1C)n(C)c(=O)n2C` [methylliberine, 2-methoxy-1,7,9-trimethylpurine-6,8-dione], which “VAS-Well-Being area under the curve, Mean” value (subjects [1]; 100 mg once daily, Day 4, 0-180 min) is on record?
**A.** 1239

**Q.** And the “VAS-Well-Being area under the curve, Mean Difference ± SE” value (subjects [1]; [6])?
**A.** 14.9 ± 43.0

**Q.** What about the “VAS-Well-Being area under the curve, effect size d” value (subjects [1]; [6]) of the same compound?
**A.** −0.05

**Q.** And the “VAS-Well-Being rating, Mean” value (subjects [1]; [7])?
**A.** 6.4

**Q.** And the “VAS-Well-Being changes from baseline, Mean Difference ± SE” value (subjects [1]; [8])?
**A.** 0.16 ± 0.16

**Q.** What about the “VAS-Well-Being changes from baseline, effect size d” value (subjects [1]; [8]) of the same compound?
**A.** 0.22

**Q.** And the “VAS-Well-Being rating, Mean” value (subjects [1]; [9])?
**A.** 6.8

**Q.** And the “VAS-Well-Being changes from baseline, Mean Difference ± SE” value (subjects [1]; [10])?
**A.** 0.46 ± 0.29

**Q.** And the “VAS-Well-Being changes from baseline, effect size d” value (subjects [1]; [10])?
**A.** 0.45

**Q.** And the “VAS-Well-Being rating, Mean” value (subjects [1]; [11])?
**A.** 7.3

**Q.** And the “VAS-Well-Being changes from baseline, Mean Difference ± SE” value (subjects [1]; [12])?
**A.** 0.54 ± 1.34

**Q.** And the “VAS-Well-Being changes from baseline, effect size d” value (subjects [1]; [12])?
**A.** 0.52

**Q.** And the “VAS-Well-Being rating, Mean” value (subjects [1]; [13])?
**A.** 7.2

**Q.** And the “VAS-Well-Being rating, Mean” value (subjects [1]; Day 0 (before supplementation))?
**A.** 6.8

**Q.** What about the “Stroop total score, Mean” value (subjects [2]; [7]) of the same compound?
**A.** 127.4

**Q.** What about the “Stroop total score, Mean” value (subjects [2]; [9]) of the same compound?
**A.** 131.5

**Q.** What about the “Stroop total score, Mean” value (subjects [2]; [11]) of the same compound?
**A.** 132.1

**Q.** And the “Stroop total score, Mean” value (subjects [2]; [13])?
**A.** 134.8

**Q.** And the “Stroop total score, Mean” value (subjects [2]; Day 0 (before supplementation))?
**A.** 125.0

**Q.** What about the Stroop average time, Mean (subjects [3]; [7]) of the same compound?
**A.** 0.961 s

**Q.** What about the Stroop average time, Mean (subjects [3]; [9]) of the same compound?
**A.** 0.929 s

**Q.** What about the Stroop average time, Mean (subjects [3]; [11]) of the same compound?
**A.** 0.921 s

**Q.** And the Stroop average time, Mean (subjects [3]; [13])?
**A.** 0.908 s

**Q.** What about the Stroop average time, Mean (subjects [3]; Day 0 (before supplementation)) of the same compound?
**A.** 0.983 s

**Q.** And the “Diastolic blood pressure, Mean” value (subjects [4]; 100 mg once daily, Day 4, 0 min after 4th dose)?
**A.** 77.3 mm Hg

**Q.** What about the “Diastolic blood pressure changes from baseline, Mean Difference ± SE” value (subjects [4]; [14]) of the same compound?
**A.** 1.28 ± 1.65 mm Hg

**Q.** And the “Diastolic blood pressure changes from baseline, effect size d” value (subjects [4]; [14])?
**A.** −0.21

**Q.** What about the “Diastolic blood pressure, Mean” value (subjects [4]; 100 mg once daily, Day 4, 60 min after 4th dose) of the same compound?
**A.** 76.9 mm Hg

**Q.** And the “Diastolic blood pressure changes from baseline, Mean Difference ± SE” value (subjects [4]; [15])?
**A.** 5.84 ± 1.55 mm Hg

**Q.** What about the “Diastolic blood pressure changes from baseline, effect size d” value (subjects [4]; [15]) of the same compound?
**A.** −0.84

**Q.** And the “Diastolic blood pressure, Mean” value (subjects [4]; 100 mg once daily, Day 4, 120 min after 4th dose)?
**A.** 75.6 mm Hg

**Q.** What about the “Diastolic blood pressure changes from baseline, Mean Difference ± SE” value (subjects [4]; [16]) of the same compound?
**A.** 2.64 ± 1.66 mm Hg

**Q.** What about the “Diastolic blood pressure changes from baseline, effect size d” value (subjects [4]; [16]) of the same compound?
**A.** −0.42

**Q.** What about the “Diastolic blood pressure, Mean” value (subjects [4]; 100 mg once daily, Day 4, 180 min after 4th dose) of the same compound?
**A.** 77.2 mm Hg

**Q.** And the “Diastolic blood pressure, Mean” value (subjects [4]; Day 0 (before supplementation))?
**A.** 76.6 mm Hg

**Q.** What about the “Heart rate, Mean” value (subjects [5]; 100 mg once daily, Day 4) of the same compound?
**A.** 69.8 beats/min

**Q.** What about the “Heart rate, Mean” value (subjects [5]; Day 0 (before supplementation)) of the same compound?
**A.** 71.4 beats/min
